# From US6768007B2, “Substituted 3′,4′-di-O-camphanoyl-(+)-cis-khellactone analogs, compositions thereof, and methods for using thereof” (Panacos Pharmaceuticals, Inc., priority 2001, dated 2004)
# Key:
# HIV-1 (IIIB isolate) = assay: Anti-HIV activity in H9 lymphocytes (p24 antigen ELISA); assay type: cell-based; settings: H-9 lymphocytes
# Protocol: (§1) The biological evaluation of HIV-1 inhibition was carried out according to established protocols, (Kashiwada, Y., et al., J. Med. Chem. 39:1016-1017 (1996); Hashimoto, F., et al., Bioorg. & Med. Chem. 5:2133-2143 (1997)). The T cell line, H9, was maintained in continuous culture log-phase growth in complete medium (RPMI 1640 with 10% fetal calf serum supplemented with L-glutamine at 5% CO2 and 37° C.). Test samples were first dissolved in dimethyl sulfoxide at a concentration of 10 mg/ml to generate master stocks with dilutions made into tissue culture media to generate working stocks. The following drug concentrations were used routinely for screening: 50, 5, and 0.5 μg/mL. For agents found to be active, additional dilutions were prepared for subsequent testing so that an accurate EC50 value (defined below) could be determined. As the test samples were being prepared, an aliquot of the H9 cell line was infected with HIV-1 (IIIB isolate) while a second aliquot was mock-infected with complete medium. […] An amount of virus equal to approximately 6.25×10^4 TCID50 was added to the first aliquot of 3.5×10^6H9 cells. The second aliquot received tissue culture medium only, and these mock-infected cells were used for toxicity determinations (IC50 defined below). After a 4 h incubation at 37° C. and 5% CO2, both cell populations were washed three times with fresh medium and then added to the appropriate wells of a 96-well plate containing various concentrations of the test drug or tissue culture medium (positive infected control/negative drug control). In addition, AZT was assayed during each experiment as a positive drug control. The plates were incubated at 37° C. and 5% CO2 for 5 days. Cell-free culture supernatants were collected on Day 5 for use in a p24 antigen-capture ELISA assay to determine virus replication. p24 is the core protein of HIV and therefore is an indirect measure of the amount of virus present in the culture supernatants. Toxicity was determined using a viable dye method (XTT) on mock-infected H9 cells that were treated with test sample, AZT or no drug. If a test sample suppressed viral replication and was toxic to less than 50% of the cells, its effects were reported in the following terms: IC50, the concentration of test sample which was toxic to 50% of the mock-infected H9 cells; EC50, the concentration of the test sample which was able to suppress HIV replication by 50%; and Therapeutic Index (TI), the ratio of IC50 to EC50.
# (§2) Compounds of the present invention were assayed for anti-HIV activity according to the following assay procedures. The T cell line, H9, and the promonocytic cell line, U937, were maintained separately in continuous culture with complete medium (RPMI 1640 with 10% fetal calf serum) at 5% CO2 and 37° C. The cell lines were used in experiments only when in the logarithmic phase of growth, whereas uninfected peripheral blood mononuclear cells (PBMCs) were first stimulated with PHA (1 μg/mL) for three days. All cell targets were incubated with HIV-1 (IIIB isolate, 1×10^6 TCID50/mL) for one hour at 37° C. and 5% CO2. The cell lines and PBMCs were washed thoroughly to remove unadsorbed virions and resuspended at 4×10^5 cells/mL in complete medium or complete medium with 10% v/v interleukin 2 (IL-2), respectively. […] aliquots were placed into wells of 96-well tissue culture plates containing an equal volume of test compounds (diluted in the appropriate culture medium). The toxicity of each compound was assessed by determining the viability of compound-exposed uninfected cells after five days at 37° C. and 5% CO2. A p24 antigen ELISA assay was used to determine the level of virus released in the medium of the HIV-infected cultures. The p24 antigen assay used a HIV-1 anti-p24 specific monoclonal antibody as the capture antibody coated onto 96-well plates. […]
# mock-infected H9 cells = assay: Cytotoxicity in mock-infected (uninfected) H9 cells; assay type: cell-based
# Protocol: as §1, §2
# [1] = design: species or system rats; settings: rat, in vivo
# Protocol: Studies of the disposition of compound 11 ((3′R,4′R)-3′,4′-di-O-(S)-(−)-camphanoyl-3-hydroxymethyl-4-methyl-(+)-cis-khellactone) and 4-methyl-DCK ((3′R,4′R)-3′,4′-di-O-(S)-(−)-camphanoyl-4-methyl-(+)-cis-khellactone) were conducted in rats. 4-Methyl-DCK can be prepared, for example, as described in U.S. Pat. No. 5,847,165. The rats ordered from Charles River with jugular catheters in place were allowed to acclimate for one to two days prior to use. The venous catheter was kept patent by flushing daily with heparin solution. […]
# Reversed phase HPLC was conducted with an ODS, 5 μM particle size, 150×10 mm Axxiom column (Thompson Instruments, Chantilly, Va.) using 55% acetonitrile and water as the mobile phase with 25 mM acetic acid buffer at 1.5 mL/min. Detection was carried out at 320 nm (λmax) for UV detection and at an excitation wavelength of 320 nm. The equipment for HPLC was an HP 1100 system with UV and quantitative analysis was performed using the HP Chemstation. […]
# Weighed amounts (approximately 7-8 mg) of 4-methyl-DCK were suspended in 1 mL of 10% Tween 80/water, then administered to two rats (250-300 g) by oral gavage using a feeding needle to provide an oral dose of 25 mg/kg. Blood samples (0.3 mL) were collected at 0, 0.25, 0.50, 0.75, 1.0, 1.5, 2, 4, 8, and 23 hours following the oral dosing. Approximately 0.01 mL of heparin was added to each sample. The samples were then centrifuged to collect 0.10 mL of plasma. The plasma samples were frozen at −20° C. prior to analysis. The samples were thawed and analyzed by reversed phase HPLC within two weeks of collection.
# Reversed phase HPLC was conducted with an ODS, 5 μM particle size, 150×10 mm Axxiom column (Thompson Instruments, Chantilly, Va.) using 60% acetonitrile/0.1% TFA in water as the mobile phase. Detection was carried out at 320 nm (λmax) for UV detection. The equipment for HPLC was an HP 1050 quaternary HPLC pump, an HP 1050 UV detector at 320 nm and range 0.2, an HP 3390 integrator, and a BioRad Model AS-100 autosampler.
# Standard curves were prepared by addition of appropriate diluted stock solutions of 4-methyl-DCK to 0.10 mL plasma (pooled human plasma) to provide concentration of zero, and 0.05 to 20 μg/mL in a 13×100 mm culture tube. Internal standard solution (0.025 mL of 0.01 mg/mL DCK) was then added to each tube. The spiked samples were briefly vortexes, then allowed to equilibrate for at least 10 minutes prior to further workup. […]
# The HPLC assay was partially validated to have a range of 0.125 to 20 μg/mL in plasma, with a detection limit of 50 ng/mL. Recovery from plasma was determined by spiking 4-methyl-DCK into plasma the same way as was done in the preparation of the standard curve, and preparing samples as described above, but adding DCK as an external standard just prior to injection. […]
SMILES,"Anti-HIV Activity EC50 (HIV-1 (IIIB isolate); HIV-1 IIIB, p24 ELISA, day 5, average of at least two experiments)",Therapeutic Index (TI = IC50/EC50) (HIV-1 (IIIB isolate); ratio of IC50 to EC50),Cytotoxicity IC50 (mock-infected H9 cells),oral bioavailability (Foral) [1],clearance ([1]; iv),time at which Cmax occurs ([1]; po),"concentration in plasma after oral administration ([1]; po, 25 mg/kg)"
"Cc1c(CO)c(=O)oc2c3c(ccc12)OC(C)(C)[C@H](OC(=O)[C@@]12CCC(C)(C(=O)O1)C2(C)C)[C@@H]3OC(=O)[C@@]12CCC(C)(C(=O)O1)C2(C)C (relative stereo) [Compound 11, (3′R,4′R)-3′,4′-Di-O-(S)-(−)-camphanoyl-3-hydroxymethyl-4-methyl-(+)-cis-khellactone]",0.0161 µg/mL,"1,320",21.2 µg/mL,15%,83 mL/min/kg,120 to 240 min,–
"Cc1cc(=O)oc2c3c(ccc12)OC(C)(C)[C@H](OC(=O)[C@@]12CCC(C)(C(=O)O1)C2(C)C)[C@@H]3OC(=O)[C@@]12CCC(C)(C(=O)O1)C2(C)C (relative stereo) [Compound 4-methyl-DCK, (3′R,4′R)-3′,4′-di-O-(S)-(−)-camphanoyl-4-methyl-(+)-cis-khellactone, reference compound]",–,–,–,–,–,–,less than 50 ng/mL
